Experimental data from patent US12304916B2, “Thienopyridinyl and thiazolopyridinyl compounds useful as IRAK4 inhibitors” (BRISTOL-MYERS SQUIBB COMPANY, priority 2019, dated 2025).
pEC50, pIC50: −log10 of the molar value.

Assays:
IRAK4 = IRAK4 (Homo sapiens (Human), UniProt Q9NWZ3); test: IRAK4 Inhibition Assay; type: biochemical; details: ATP 500 μM; IRAK4 0.6 nM; 60 min at room temperature
Protocol: The assays were performed in U-bottom 384-well plates. The final assay volume was 30 μL prepared from 15 μL additions of enzyme and substrates (fluoresceinated peptide and ATP) and test compounds in assay buffer (20 mM HEPES pH 7.2, 10 mM MgCl2, 0.015% Brij 35 and 4 mM DTT). The reaction was initiated by the combination of IRAK4 with substrates and test compounds. The reaction mixture was incubated at room temperature for 60 min. and terminated by adding 45 μL of 35 mM EDTA to each sample. The reaction mixture was analyzed on the Caliper LABCHIP® 3000 (Caliper, Hopkinton, MA) by electrophoretic separation of the fluorescent substrate and phosphorylated product. Inhibition data were calculated by comparison to no enzyme control reactions for 100% inhibition and vehicle-only reactions for 0% inhibition. The final concentrations of reagents in the assays are ATP, 500 μM; FL-IPTSPITTTYFFFKKK peptide 1.5 μM; IRAK4, 0.6 nM; and DMSO, 1.6%.

[1] = system: IL-6 levels in human whole blood stimulated with a TLR2 agonist (lipoteichoic acid); test: IRAK4 Whole Blood Assay; type: cell-based; details: 10 μg/mL lipoteichoic acid for 5 hours, IL-6 readout
Protocol: Human whole blood containing the anti-coagulant ACD-A was plated in 384-well plate (25 μL/well) and incubated with compounds for 60 minutes at 37° C. in a 5% CO2 incubator. The blood was stimulated with a TLR2 agonist, 10 μg/mL final concentration of lipoteichoic acid (Invivogen, San Diego, CA) in 25 μL RPMI (Gibco) for 5 hours in a 5% CO2 incubator. At the end of the incubation, plates were centrifuged at 2300 rpm for 5 minutes. Supernatants were harvested and analyzed for IL-6 levels by Flow Cytometry beads assay (BD Biosciences, San Jose, CA).

IRAK4, sequence (Q9NWZ3 whole entry, species assumed): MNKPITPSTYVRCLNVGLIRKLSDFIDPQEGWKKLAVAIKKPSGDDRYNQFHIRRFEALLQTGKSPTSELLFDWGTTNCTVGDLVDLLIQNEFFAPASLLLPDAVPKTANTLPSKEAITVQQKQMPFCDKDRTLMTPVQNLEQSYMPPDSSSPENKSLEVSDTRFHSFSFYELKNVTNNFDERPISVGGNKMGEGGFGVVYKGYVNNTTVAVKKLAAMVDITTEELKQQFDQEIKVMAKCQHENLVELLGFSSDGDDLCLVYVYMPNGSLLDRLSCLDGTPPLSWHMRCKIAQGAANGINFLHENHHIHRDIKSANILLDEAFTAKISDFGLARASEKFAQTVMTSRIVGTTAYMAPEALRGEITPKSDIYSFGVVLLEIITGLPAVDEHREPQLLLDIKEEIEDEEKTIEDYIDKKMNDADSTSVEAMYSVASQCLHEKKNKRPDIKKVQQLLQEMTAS

Structure (SMILES)	pIC50 (IRAK4)	pEC50 [1]
CC(C)Nc1c(C(=O)NC[C@@H](F)C(C)(C)O)cnc2sc(-c3cccc(C#N)c3)cc12 [Example 24, (R)-2-(3-cyanophenyl)-N-(2-fluoro-3-hydroxy-3-methylbutyl)-4-(isopropylamino)thieno[2,3-b]pyridine-5-carboxamide]	7.77	< 4.70
CC(C)Nc1c(C(=O)NCCc2ccncc2)cnc2sc(-c3ccc(=O)[nH]c3)cc12 [Example 71, 4-(isopropylamino)-2-(6-oxo-1,6-dihydropyridin-3-yl)-N-(2-(pyridin-4-yl)ethyl)thieno[2,3-b]pyridine-5-carboxamide]	8.28	< 4.70
CC(C)Nc1c(C(=O)NC[C@@H](F)C(C)(C)O)cnc2sc(-c3ccc(=O)[nH]c3)cc12 [Example 59, (R)-N-(2-fluoro-3-hydroxy-3-methylbutyl)-4-(isopropylamino)-2-(6-oxo-1,6-dihydropyridin-3-yl)thieno[2,3-b]pyridine-5-carboxamide]	8.42	6.72
CC(C)Nc1c(-c2cn(CCCO)nn2)cnc2sc(-c3ccc(=O)[nH]c3)cc12 [Example 80, 5-(5-(1-(3-hydroxypropyl)-1H-1,2,3-triazol-4-yl)-4-(isopropylamino)thieno[2,3-b]pyridin-2-yl) pyridin-2(1H)-one]	8.28	6.38
CC(C)Nc1c(C(=O)NC[C@@H](F)C(C)(C)O)cnc2sc(-c3cn[nH]c3)cc12 [Example 21, (R)-N-(2-fluoro-3-hydroxy-3-methylbutyl)-4-(isopropylamino)-2-(1H-pyrazol-4-yl)thieno[2,3-b]pyridine-5-carboxamide]	8.62	< 4.70
CC(C)Nc1c(C(=O)NC[C@@H](F)C(C)(C)O)cnc2sc(-c3cnc(N)s3)cc12 [Example 56, (R)-2-(2-aminothiazol-5-yl)-N-(2-fluoro-3-hydroxy-3-methylbutyl)-4-(isopropylamino)thieno[2,3-b]pyridine-5-carboxamide]	8.22	< 5.00
CC(C)Nc1c(C(=O)NC[C@@H](F)C(C)(C)O)cnc2sc(-c3ccc(C#N)nc3)cc12 [Example 25, (R)-2-(6-cyanopyridin-3-yl)-N-(2-fluoro-3-hydroxy-3-methylbutyl)-4-(isopropylamino) thieno[2,3-b]pyridine-5-carboxamide]	7.72	< 4.70
C[C@H](CO)Nc1c(C(=O)NCCCN2CCOCC2)cnc2sc(-c3ccccc3)nc12 [Example 8, (R)-7-((1-hydroxypropan-2-yl)amino)-N-(3-morpholinopropyl)-2-phenylthiazolo[5,4-b]pyridine-6-carboxamide]	6.32	–
CC(C)(O)[C@H](F)CNC(=O)c1cnc2sc(-c3ccccc3)nc2c1NC1CCCC1 [Example 3, (R)-7-(cyclopentylamino)-N-(2-fluoro-3-hydroxy-3-methylbutyl)-2-phenylthiazolo[5,4-b]pyridine-6-carboxamide]	7.47	–
CC(C)Nc1c(-n2cc(CCC(C)(C)O)nn2)cnc2sc(-c3cccnc3)cc12 [Example 74, 4-(1-(4-(isopropylamino)-2-(pyridin-3-yl)thieno[2,3-b]pyridin-5-yl)-1H-1,2,3-triazol-4-yl)-2-methylbutan-2-ol]	6.77	–
CC(C)CCc1nc(-c2cnc3sc(-c4cncs4)cc3c2NC(C)C)n[nH]1 [Example 77, 5-(5-isopentyl-1H-1,2,4-triazol-3-yl)-N-isopropyl-2-(thiazol-5-yl)thieno[2,3-b]pyridin-4-amine]	6.54	–
CC(C)Nc1c(C(=O)NC[C@@H](F)C(C)(C)O)cnc2sc(-c3c[nH]c4ncc(F)cc34)cc12 [Example 28, (R)-2-(5-fluoro-1H-pyrrolo[2,3-b]pyridin-3-yl)-N-(2-fluoro-3-hydroxy-3-methylbutyl)-4-(isopropylamino)thieno[2,3-b]pyridine-5-carboxamide]	7.12	–
CC(C)Nc1c(C(=O)NCCC2CC2)cnc2sc(-c3cccnc3)nc12 [Example 19, N-(2-cyclopropylethyl)-7-(isopropylamino)-2-(pyridin-3-yl)thiazolo[5,4-b]pyridine-6-carboxamide]	7.14	–

Further lines, results first:

pIC50 (IRAK4)	pEC50 [1]	Structure (SMILES)
8.27	5.63	CC(C)Nc1c(C(=O)NCCC2(O)CC(F)(F)C2)cnc2sc(-c3cncs3)cc12 [Example 63, N-(2-(3,3-difluoro-1-hydroxycyclobutyl)ethyl)-4-(isopropylamino)-2-(thiazol-5-yl)thieno[2,3-b]pyridine-5-carboxamide]
8.03	5.27	COC(=O)N[C@H]1CC[C@H](NC(=O)c2cnc3sc(-c4cncs4)cc3c2NC(C)C)CC1 [Example 50, methyl ((1r,4r)-4-(4-(isopropylamino)-2-(thiazol-5-yl)thieno[2,3-b]pyridine-5-carboxamido)cyclohexyl)carbamate]
8.64	< 5.00	CC(C)Nc1c(-c2cn(CCCO)nn2)cnc2sc(-c3cncs3)cc12 [Example 79, 3-(4-(4-(isopropylamino)-2-(thiazol-5-yl)thieno[2,3-b]pyridin-5-yl)-1H-1,2,3-triazol-1-yl)propan-1-ol]
7.96	< 4.70	CC(C)Nc1c(C(=O)NCCN2CCS(=O)(=O)CC2)cnc2sc(-c3cncs3)cc12 [Example 68, N-(2-(1,1-dioxidothiomorpholino)ethyl)-4-(isopropylamino)-2-(thiazol-5-yl)thieno[2,3-b]pyridine-5-carboxamide]
7.77	< 4.70	CCOCCNC(=O)c1cnc2sc(-c3cncs3)cc2c1NC(C)C [Example 43, N-(2-ethoxyethyl)-4-(isopropylamino)-2-(thiazol-5-yl)thieno[2,3-b]pyridine-5-carboxamide]
7.91	5.30	CC(C)Nc1c(C(=O)N[C@H]2CC[C@H](N)CC2)cnc2sc(-c3cncs3)cc12 [Example 38, N-((1r,4r)-4-aminocyclohexyl)-4-(isopropylamino)-2-(thiazol-5-yl)thieno[2,3-b]pyridine-5-carboxamide]
8.09	6.18	CC(C)Nc1c(C(=O)NCCC(C)(C)O)cnc2sc(-c3cncs3)cc12 [Example 44, N-(3-hydroxy-3-methylbutyl)-4-(isopropylamino)-2-(thiazol-5-yl)thieno[2,3-b]pyridine-5-carboxamide]
8.70	6.24	CC(C)Nc1c(C(=O)NC[C@@H](F)C(C)(C)O)cnc2sc(-c3cncs3)cc12 [Example 27, (R)-N-(2-fluoro-3-hydroxy-3-methylbutyl)-4-(isopropylamino)-2-(thiazol-5-yl) thieno[2,3-b]pyridine-5-carboxamide]
7.97	< 5.00	CC(O)CCNC(=O)c1cnc2sc(-c3cncs3)cc2c1NC(C)C (stereo not shown) [Example 60, N-(3-hydroxybutyl)-4-(isopropylamino)-2-(thiazol-5-yl)thieno[2,3-b]pyridine-5-carboxamide]
7.89	5.62	CC(C)CCNC(=O)c1cnc2sc(-c3ccncc3)cc2c1NC(C)C [Example 29, N-isopentyl-4-(isopropylamino)-2-(pyridin-4-yl)thieno[2,3-b]pyridine-5-carboxamide]
7.82	5.44	CC(C)(O)[C@H](F)CNC(=O)c1cnc2sc(-c3cncs3)cc2c1NC1COC1 [Example 53, (R)-N-(2-fluoro-3-hydroxy-3-methylbutyl)-4-(oxetan-3-ylamino)-2-(thiazol-5-yl)thieno[2,3-b]pyridine-5-carboxamide]
8.06	< 4.70	CC(C)Nc1c(-c2cn(CC3CC3)nn2)cnc2sc(-c3cncs3)cc12 [Example 78, 5-(1-(cyclopropylmethyl)-1H-1,2,3-triazol-4-yl)-N-isopropyl-2-(thiazol-5-yl)thieno[2,3-b]pyridin-4-amine]
8.17	< 4.70	CC(C)Nc1c(C(=O)NCCc2cccnc2)cnc2sc(-c3ccc(=O)[nH]c3)cc12 [Example 72, 4-(isopropylamino)-2-(6-oxo-1,6-dihydropyridin-3-yl)-N-(2-(pyridin-3-yl)ethyl)thieno[2,3-b]pyridine-5-carboxamide]
7.65	–	CC(C)Nc1c(C(=O)NCCC2CCNC2)cnc2sc(-c3ccc(=O)[nH]c3)cc12 (stereo not shown) [Example 70, 4-(isopropylamino)-2-(6-oxo-1,6-dihydropyridin-3-yl)-N-(2-(pyrrolidin-3-yl)ethyl)thieno[2,3-b]pyridine-5-carboxamide]
6.57	–	CC(C)Nc1c(C(=O)NCC(C)(C)CO)cnc2sc(-c3cncs3)cc12 [Example 46, N-(3-hydroxy-2,2-dimethylpropyl)-4-(isopropylamino)-2-(thiazol-5-yl)thieno[2,3-b]pyridine-5-carboxamide]
7.43	–	CC(=O)N1CCC(NC(=O)c2cnc3sc(-c4ccc(=O)[nH]c4)cc3c2NC(C)C)CC1 [Example 66, N-(1-acetylpiperidin-4-yl)-4-(isopropylamino)-2-(6-oxo-1,6-dihydropyridin-3-yl)thieno[2,3-b]pyridine-5-carboxamide]
